Reference: patent publication US20240317777A1, “NOVEL MACROCYCLIC AMINOPYRAZOLE COMPOUNDS AS CDK2 INHIBITORS” (Accutar Biotechnology Inc., priority 2023, published 2024)
pIC50: −log10 of the molar value.

Tests used:
Type in all cases: cell-based
[1] = test system: Phospho-Rb (Ser807/811) in OVCAR3 cells; assay: Phospho-Rb expression inhibition in OVCAR3 cells quantified by In Cell Western; details: Homo sapiens, OVCAR-3, 24 hours, read-out: OVCAR-3 pRb IC50
Description: Phospho-Rb Expression Inhibition in OVCAR3 Cells Quantified by in Cell Western
OVCAR3 cells were obtained from American Type Culture Collection (ATCC, HTB-161). OVCAR3 cells were plated in 96-well plates (VWR #10062-900, or Corning #3904) in 90 uL culture medium at a density of 20,000 cells/well in the RPM11640 growth medium containing 10% FBS and 1% Penicillin Streptomycin, and then incubated at 37° C. overnight. The following day, the test compound was administered to the cells by using 1000× compound stock solution prepared in DMSO at various concentrations. 1000× compound stock solution was first diluted in culturing medium to 10x, then 10 uL compound medium was added to each well in the cell plates. After administration of the compound, the cells were then incubated at 37° C. for 24 hours. Upon completion, the cells were washed with PBS briefly. 150 uL/well of 4% formaldehyde was added and the plates were incubated at room temperature for 20 mins. The cells were washed with PBS briefly, and permeabilized with 150 uL/well of ice cold 100% methanol for 10 mins. The cells were washed with PBS briefly and blocked with 100 uL/well LI-COR blocking buffer for 1 hr at room temperature with gentle shaking. The cells were incubated overnight at 4° C. with 50 uL primary antibody rabbit anti-Phospho-Rb (Ser807/811) (1:500, Cell Signaling, #8516) and anti-Rb (1:200, Santa Cruz, sc-73598) diluted in Intercept Blocking Buffer (LI-COR, #927-60001) containing 0.1% Tween 20. The next day, the cells were washed with 200 uL PBS containing 0.1% Tween 20, 5×5 mins at room temperature with gentle shaking, and incubated with 50 uL secondary antibody, IRDye® 800CW Goat anti-Rabbit IgG (1:1000, LI-COR, #926-32211) and IRDye® 680RD Goat anti-Mouse IgG (1:1000, LI-COR, #926-68070), in LI-COR blocking buffer with 0.2% Tween 20 for 1 hr at room temperature with gentle shaking. The cells were washed with 200 uL PBS containing 0.1% Tween 20, 5×5 mins at room temperature with gentle shaking. The cells were washed with PBS for 5 mins. 100 uL fresh PBS was added to each well and the plates were imaged on a LI-COR Odyssey CLX plate reader.

[2] = test system: CCNE1-amplified OVCAR3 cells; assay: Cell growth inhibition of CCNE1-amplified OVCAR3 cells (CellTiter-Glo); details: Homo sapiens, OVCAR-3, 144 h, 6 days
Description: Cell Growth Inhibition of CCNE1-Amplified OVCAR3 Cells
(§1) OVCAR3 cells were seeded in 96-well plates at 2000 cells/well in 90 μl of RPM11640 growth medium containing 10% FBS and 1% Penicillin Streptomycin, and then incubated at 37° C. overnight. The following day, the test compound was administered to the cells by using 1000× compound stock solution prepared in DMSO at various concentrations. 1000× compound stock solution was first diluted in culturing medium to 10x, then 10 uL compound medium was added to each well in the cell plates. After administration of the compound, the cells were then incubated at 37° C. for 6 days. Upon completion, the plates were equilibrated at room temperature for approximately 10 minutes. 100 ul of CellTiter-Glo® Reagent (Promega) was added to each well. The plates were then incubated at room temperature for 10 minutes and luminescence was recorded by EnSpire plate reader (PerkinElmer).

CCNE1-normal SKOV3 cells = assay: Cell growth inhibition of CCNE1-normal SKOV3 cells (CellTiter-Glo); details: Homo sapiens, SK-OV-3, 144 h, 6 days
Description: Cell Growth Inhibition of CCNE1-Normal SKOV3 Cells
as §1, with “SKOV3 cells were obtained from American Type Culture Collection (ATCC, HTB-77). SKOV3” for “OVCAR3”, “1000” for “2000”

SMILES	pIC50 [1]	pIC50 [2]	pIC50 (CCNE1-normal SKOV3 cells)
CC1CCCOc2cc(ccn2)Nc2cc([nH]n2)[C@H]2CC[C@H](C2)OC(=O)N1 (mixture of isomers) [Compound 8, (1^1S,1^3R,Z)-9-methyl-2^1H-5,12-dioxa-3,10-diaza-4(4,2)-pyridina-2(3,5)-pyrazola-1(1,3)-cyclopentanacyclododecaphan-11-one]	8.00 to 8.70	7.30 to 8.00	< 5.90
O=C1NC2CC(C2)CC(F)(F)c2cc(ccn2)Nc2cc(n[nH]2)[C@H]2CC[C@H](C2)O1 (single isomer, unassigned) [Compound 169, (1^1S,1^3R,7^1R,7^3S,Z)-5,5-difluoro-2^1H-10-oxa-3,8-diaza-4(4,2)-pyridina-2(3,5)-pyrazola-1(1,3)-cyclopentana-7(1,3)-cyclobutanacyclodecaphan-9-one]	7.30 to 8.00	6.60 to 7.30	< 5.90
O=C1NCCCCOc2cc(ccn2)Nc2cc([nH]n2)[C@H]2CC[C@H](C2)O1 [Compound 1, (1^1S,1^3R,Z)-2^1H-5,12-dioxa-3,10-diaza-4(4,2)-pyridina-2(3,5)-pyrazola-1(1,3)-cyclopentanacyclododecaphan-11-one]	7.30 to 8.00	7.30 to 8.00	< 5.90
O=C1NCCCCCOc2cc(ccn2)Nc2cc([nH]n2)[C@H]2CC[C@H](C2)O1 [Compound 3, (1^1S,1^3R,Z)-2^1H-5,13-dioxa-3,11-diaza-4(4,2)-pyridina-2(3,5)-pyrazola-1(1,3)-cyclopentanacyclotridecaphan-12-one]	7.30 to 8.00	6.60 to 7.30	< 5.90
O=C1NC23CC(COc4cc(ccn4)Nc4cc([nH]n4)[C@H]4CC[C@H](C4)O1)(C2)C3 [Compound 18, (1^1S,1^3R,Z)-2^1H-5,10-dioxa-3,8-diaza-4(4,2)-pyridina-2(3,5)-pyrazola-7(1,3)-bicyclo[1.1.1]pentana-1(1,3)-cyclopentanacyclodecaphan-9-one]	6.60 to 7.30	6.60 to 7.30	< 5.90
O=C1NC23CC(CCOc4cc(ccn4)Nc4cc([nH]n4)[C@H]4CC[C@H](C4)O1)(C2)C3 [Compound 22, (1^1S,1^3R,Z)-2^1H-5,11-dioxa-3,9-diaza-4(4,2)-pyridina-2(3,5)-pyrazola-8(1,3)-bicyclo[1.1.1]pentana-1(1,3)-cyclopentanacycloundecaphan-10-one]	≥ 8.70	≥ 8.70	7.30 to 8.00
O=C1NCCCOC2(CC2)c2cc(ccn2)Nc2cc([nH]n2)[C@H]2CC[C@H](C2)O1 [Compound 26, (1'S,3′R,Z)-spiro[cyclopropane-1,5′-6,12-dioxa-3,10-diaza-4(4,2)-pyridina-2(3,5)-pyrazola-1(1,3)-cyclopentanacyclododecaphan]-11′-one]	7.30 to 8.00	7.30 to 8.00	5.90 to 6.60
O=C1NC2(CCCOc3cc(ccn3)Nc3cc([nH]n3)[C@H]3CC[C@H](C3)O1)CC2 [Compound 33, (1'S,3′R,Z)-spiro[cyclopropane-1 9′-5,12-dioxa-3,10-diaza-4(4,2)-pyridina-2(3,5)-pyrazola-1(1,3)-cyclopentanacyclododecaphan]-11′-one]	7.30 to 8.00	6.60 to 7.30	< 5.90
[2H]C1([2H])Oc2cc(ccn2)Nc2[nH]nc(c2Cl)[C@H]2CC[C@H](C2)OC(=O)NC2CC1C2 [Compound 222, (1^1S,1^3R,7^1R,7^3S,E)-24-chloro-2^1H-5,10-dioxa-3,8-diaza-4(4,2)-pyridina-2(3,5)-pyrazola-1(1,3)-cyclopentana-7(1,3)-cyclobutanacyclodecaphan-9-one-6,6-d2]	6.60 to 7.30	< 6.60	–
C[C@H]1CCCOc2cncc(n2)Nc2cc(n[nH]2)[C@H]2CC[C@H](C2)OC(=O)N1 [Compound 233, (1^1S,1^3R,9S,Z)-9-methyl-2^1H-5,12-dioxa-3,10-diaza-4(2,6)-pyrazina-2(3,5)-pyrazola-1(1,3)-cyclopentanacyclododecaphan-11-one]	≥ 8.70	≥ 8.70	–
C[C@H]1CCCOc2cncc(n2)Nc2[nH]nc(c2F)[C@H]2CC[C@H](C2)OC(=O)N1 [Compound 234, (1^1S,1^3R,9S,E)-2^4-fluoro-9-methyl-2^1H-5,12-dioxa-3,10-diaza-4(2,6)-pyrazina-2(3,5)-pyrazola-1(1,3)-cyclopentanacyclododecaphan-11-one]	8.00 to 8.70	7.30 to 8.00	–
O=C1NC2CC(COc3cncc(n3)Nc3cc(n[nH]3)[C@H]3CC[C@H](C3)O1)C2 [Compound 235, (1^1S,1^3R,7^1R,7^3S,Z)-2^1H-5,10-dioxa-3,8-diaza-4(2,6)-pyrazina-2(3,5)-pyrazola-1(1,3)-cyclopentana-7(1,3)-cyclobutanacyclodecaphan-9-one]	≥ 8.70	≥ 8.70	–
O=C1NC2CC(COc3cncc(n3)Nc3[nH]nc(c3F)[C@H]3CC[C@H](C3)O1)C2 [Compound 236, (1^1S,1^3R,7^1R,7^3S,E)-2^4-fluoro-2^1H-5,10-dioxa-3,8-diaza-4(2,6)-pyrazina-2(3,5)-pyrazola-1(1,3)-cyclopentana-7(1,3)-cyclobutanacyclodecaphan-9-one]	8.00 to 8.70	7.30 to 8.00	–
C[C@H]1CCCOc2cc(ccn2)Nc2[nH]nc(c2F)C2C[C@@H](F)[C@H](C2)OC(=O)N1 [Compound 237, (1^1R,1^3S,1^4R,9S,E)-1^4,2^4-difluoro-9-methyl-2^1H-5,12-dioxa-3,10-diaza-4(4,2)-pyridina-2(3,5)-pyrazola-1(1,3)-cyclopentanacyclododecaphan-11-one]	7.30 to 8.00	6.60 to 7.30	–
C[C@H]1CCCOc2cc(ccn2)Nc2[nH]nc(c2F)C2C[C@H](F)[C@@H](C2)OC(=O)N1 [Compound 238, (1^1S,1^3R,1^4S,9S,E)-1^4,2^4-difluoro-9-methyl-2^1H-5,12-dioxa-3,10-diaza-4(4,2)-pyridina-2(3,5)-pyrazola-1(1,3)-cyclopentanacyclododecaphan-11-one]	7.30 to 8.00	6.60 to 7.30	–
C[C@H]1CCCOc2nccc(n2)Nc2cc(n[nH]2)[C@H]2CC[C@H](C2)OC(=O)N1 [Compound 241, (1^1S,1^3R,9S,Z)-9-methyl-2^1H-5,12-dioxa-3,10-diaza-4(4,2)-pyrimidina-2(3,5)-pyrazola-1(1,3)-cyclopentanacyclododecaphan-11-one]	≥ 8.70	≥ 8.70	–
C[C@H]1CCCOc2nccc(n2)Nc2[nH]nc(c2F)[C@H]2CC[C@H](C2)OC(=O)N1 [Compound 256, (1^1S,1^3R,9S,E)-2^4-fluoro-9-methyl-2^1H-5,12-dioxa-3,10-diaza-4(4,2)-pyrimidina-2(3,5)-pyrazola-1(1,3)-cyclopentanacyclododecaphan-11-one]	8.00 to 8.70	7.30 to 8.00	–
C[C@@H]1CC23CC(C2)(C3)NC(=O)O[C@@H]2CC[C@@H](C2)c2cc(n[nH]2)Nc2cc(nc(C(F)F)c2)O1 [compound 24]	< 6.60	< 6.60	–
C[C@H]1CC23CC(C2)(C3)NC(=O)O[C@@H]2CC[C@@H](C2)c2cc(n[nH]2)Nc2cc(nc(C(F)F)c2)O1 [compound 25]	< 6.60	< 6.60	–
